Laboratory results reported in US11116774B2, “Modulators of toll-like receptors for the treatment of HIV” (Gilead Sciences, Inc., priority 2014, dated 2021).
Where “and” joins values, the source holds several entries; their conditions need not be identical. Identical values can stand only once.

Columns and labels:
SIVmac251 = assay: TLR7 modulating compound in cART treated SIV+ rhesus with undetectable plasma viremia: plasma SIV RNA during dosing and after cART cessation (Example 204); assay type: in vivo, Indian rhesus macaques (Macaca mulatta); details: for Plasma SIV RNA: 0.3 mg/kg oral, on cART
Description: A group of 10 Indian rhesus macaques (Macaca mulatta) were treated with the compound of Example 4 or dosing vehicle of Example 201 (placebo group) in a multiple dose, dose escalation study. The macaques were infected with simian immunodeficiency virus (SIVmac251) by repeat low-dose rectal mucosal challenge. Beginning on day 65 post-infection, after establishment of peak viremia and an early viral chronic set point, the animals were treated with a the cART by sub-cutaneous injection at 1 mL/kg, the administration of which was for approximately one year. During the time of cART administration plasma viral loads decreased to undetectable levels (SIV gag RNA<50 copies/mL) by Day 168 post-infection, and were maintained for approximately 5 months prior to administration of the compound of Example 4 by use of daily cART. In addition, animals were maintained on the same cART regimen when dosed with the compound of Example 4. The amount of antiretrovirals administered to each animal, on a daily basis, in the cART formulation were 20 mg/kg tenofovir, 50 mg/kg emtricitibine (FTC), and 2.5 mg/kg dolutegravir. The animals were administered cART daily from approximately day 65 post-infection, through viral suppression and administration of the compound of Example 4 until approximately two weeks post-last dose of the compound from Example 4 at which time cART was stopped to monitor plasma viral load rebound kinetics.
Beginning on Day 317 post-infection, the animals were dosed once every other week with either the compound of Example 4 or dosing vehicle of Example 201 (placebo group). Four animals were dosed with the compound of Example 4, prepared as described in Example 201. The first week, 1 mL/kg of the 0.1 mg/mL formulation was dosed, corresponding to a dose of 0.1 mg/kg. The third week, 1 mL/kg of the 0.2 mg/mL formulation was dosed, corresponding to a dose of 0.2 mg/kg. On weeks five through thirteen, 1 mL/kg of the 0.3 mg/mL formulation was dosed, corresponding to a dose of 0.3 mg/kg (seven doses in total). The other six animals were controls, of which three were given seven doses of saline by oral gavage once every two weeks; the other three animals were left untreated. Approximately two weeks following the last dose of the compound of Example 4, cART was stopped in the three saline-dosed placebo animals and the four animals who had received the compound of Example 4. Approximately one month later, cART was stopped in the three untreated control animals. Following cART cessation viral loads were monitored for a period of six months.
Each formulation of the compound of Example 4 or dosing vehicle of Example 201 was thawed at room temperature prior to dosing. Animals were dosed by oral gavage via nasogastric tube.
Plasma viral loads (expressed as SIV RNA copies per mL of plasma) were determined by quantitative RT-PCR of the SIV RNA measuring the gag gene transcripts at various times throughout the study. Viral loads for each animal for each study day relative to time of administration of the first dose of the compound of Example 4 are depicted in FIG. 3; dosing days are shown by the arrows on the horizontal x-axis.
After two weeks following the last dose of study drug, cART therapy was also stopped in all dosed (placebo dosed included) animals. In the untreated control group of animals, cART was stopped 30 days later. Table 2 denotes the average viral load chronic set point from day 42-81 following cessation of cART for each of the animals in the study. […] However, when comparing the pre-cART plasma SIV RNA chronic set point to the post-cART cessation chronic set point within the animals administered the compound of Example 4 this was approximately ˜0.5 log10 lower (mean change for all animals treated with the compound of Example 4) than the change observed in those animals in the placebo group (mean change for all animals administered dosing vehicle of Example 201).

[1] = tested on: peripheral CD8 lymphocytes (CD3+CD8+CD4−); assay: Peripheral lymphocyte activation, CD69 by flow cytometry: CD8 lymphocytes (Example 206); assay type: in vivo, rhesus macaque
Text: During the course of treatment with the compound of Example 4 as described in Example 204, peripheral lymphocyte activation was monitored in the groups dosed with the compound of Example 4 or the dosing vehicle of Example 201 (placebo), by measuring the expression of the early activation marker CD69 on various lymphocyte subsets by flow cytometry methodology. This methodology was used to quantify the percentage of immune cell subsets expressing the early activation marker. Standard data acquisition techniques were employed on a flow cytometer and by the use of antibodies conjugated to fluorescent molecules where the antibodies recognize rhesus macaque cell surface proteins on various immune cell subsets. In animals dosed with the compound of Example 4, whole blood samples were collected for each dose at various time points both at pre- and post-administration of compound. Total PBMCs were stained in the whole blood samples using antibodies that were chosen to be reactive to rhesus CD3, CD4, CD8, NKG2A, CD16 and CD56, each conjugated to different fluorescent probes to delineate CD3+CD4+CD8− lymphocytes, CD3+CD4−CD8+ lymphocytes and CD3-CD8+ NKG2A+CD16+ CD56+ NK cells. The flow cytometry data presented herein are from animals treated with the compound of Example 4.

[2] = tested on: polyfunctional proliferating CD8 T cells (CFSE low, IFNg+, TNFa+); assay: Induction of HIV-specific polyfunctional CD8 T cells by combination with an IDO1 inhibitor (Example 217); assay type: cell-based, human; details: 0.1 uM; PBMCs from 4 HIV-infected donors; 8 days
Description: PBMCs from 4 HIV-infected donors (Donor IDs 180-183) on suppressive cART were isolated, as described previously, stained with CFSE, and treated with 500 ng/ml 15-mer peptide pools derived from overlapping HIV gag, pol, nef, and env consensus peptides (JPT Peptide Technologies GmbH). PBMC cultures were treated with DMSO or the compound of Example 49 (GS-9620) at 0.1 uM. In some cultures treated with Example 49, the IDO1 small molecule inhibitor, INCB024360, was combined at 2 μM. Cells were incubated at 37° C. for 8 days, then split into duplicate sets and stained in DPBS with LIVE/DEAD Fixable Aqua Dead Cell Stain (Life Technologies). The immune recall response was performed as previously described. FACS was performed on a LSR Fortessa (BD Biosciences) and data analysis was done with FlowJo software (TreeStar). Data was plotted and statistical analysis was done with GraphPad Prism software (GraphPad).

CCCCOc1nc(N)c2c(n1)N(Cc1ccc(CN3CCCC3)cc1)CC(=O)N2 [Example 4]
Plasma SIV RNA (SIVmac251; Dose 4, 1 day post-dose): <50 copies/mL | Plasma SIV RNA (SIVmac251; Dose 4, 3 days post-dose): <50 copies/mL | Plasma SIV RNA (SIVmac251; Dose 4, 7 days post-dose): <50 copies/mL | Plasma SIV RNA (SIVmac251; Dose 4, Pre): <50 copies/mL | Plasma SIV RNA (SIVmac251; Dose 5, 2 days post-dose): 344 copies/mL and 361 copies/mL and 563 copies/mL and 623 copies/mL | Plasma SIV RNA (SIVmac251; Dose 5, 7 days post-dose): <50 copies/mL | Plasma SIV RNA (SIVmac251; Dose 5, Pre): <50 copies/mL | Plasma SIV RNA (SIVmac251; Dose 6, 7 days post-dose): <50 copies/mL | Plasma SIV RNA (SIVmac251; Dose 6, Pre): <50 copies/mL | Plasma SIV RNA (SIVmac251; Dose 7, 7 days post-dose): <50 copies/mL | Plasma SIV RNA (SIVmac251; Dose 7, Pre): <50 copies/mL | time virus levels remained undetectable after the last dose (SIVmac251; SIV+ rhesus on cART): 13 days | plasma virus levels returned to baseline prior to the following dose (SIVmac251; SIV+ rhesus on cART, 0.3 mg/kg doses): < 50 copies per mL | time after dose at which detectable plasma virus was observed (SIVmac251; SIV+ rhesus on cART, after each of the last three doses at 0.3 mg/kg, oral, once every other week): 24 to 72 h | pre-cART to post-cART cessation plasma SIV RNA chronic set point change, lower than the change in the placebo group (SIVmac251; mean change for all treated animals, set point day 42-81 following cessation of cART): ~0.5 log10 | Mean Change in Chronic Set Point (SIVmac251; mean of the four dosed animals): −1.26 -log10 copy/mL | Plasma SIV RNA Chronic Set Point Day 42-81 Post-cART Cessation (SIVmac251; per animal, after seven doses (0.1, 0.2, 0.3 mg/kg) every other week): 3,553 copy/mL and 10,062 copy/mL and 20,146 copy/mL and 24,527 copy/mL | Plasma SIV RNA Chronic Set Point Day 42-63 Pre-cART (SIVmac251; per animal, baseline before cART and before dosing): 237,667 copy/mL and 76,833 copy/mL and 156,333 copy/mL and 666,333 copy/mL | Change in Chronic Set Point (SIVmac251; per animal, post-cART cessation versus pre-cART): −1.83 -log10 copy/mL and −0.88 -log10 copy/mL and −0.89 -log10 copy/mL and −1.43 -log10 copy/mL | mean maximum percent change in CD69 expression on CD8 lymphocytes ([1]; all subsequent 0.3 mg/kg doses): 15.5% | mean maximum percent change in CD69 expression on CD8 lymphocytes ([1]; dose 0.1 mg/kg, any time point (rise 24 to 72 hours post-dose), pre-dose range 3.3-12.6%): 7.8% | mean maximum percent change in CD69 expression on CD8 lymphocytes ([1]; dose 0.2 mg/kg, pre-dose range 3.0-15.7%): 9.5% | mean maximum percent change in CD69 expression on CD8 lymphocytes ([1]; first dose of 0.3 mg/kg, pre-dose range 5.0-14.4%): 17.3%

CCCCOc1nc(N)c2c(n1)N(Cc1cccc(CN3CCCC3)c1)CC(=O)N2 [Example 49]
increase of mean level of polyfunctional proliferating CD8 T cells compared to DMSO [2]: 2.9 fold
